Experimental data taken from PubChem BioAssay (NCI).
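Grown in 96-well plates, cells were treated for 48 hours with each compound at five concentrations. Insufficient inhibition: endpoint recorded as highest concentration tested. TGI marks complete inhibition of growth.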

Columns and labels:
Experiment in all cases: NCI tumour cell line growth inhibition, 48 h
[1] = system: SN12C renal
[2] = system: NCI-H522 lung
[3] = system: RXF 393 renal
[4] = system: SW-620 colon
[5] = system: RXF-631 renal
[6] = system: M14 melanoma
[7] = system: SNB-19 CNS
[8] = system: COLO 205 colon
[9] = system: 786-0 renal
[10] = system: A549 NSCLC
[11] = system: HT29 colon
[12] = system: M19-MEL melanoma
[13] = system: SNB-78 CNS
[14] = system: OVCAR-4 ovarian
[15] = system: NCI-H226 lung
[16] = system: LXFL 529 NSCLC
[17] = system: SR leukemia
[18] = system: A498 renal
[19] = system: UO-31 renal
[20] = system: KM20L2 colon
[21] = system: OVCAR-3 ovarian
[22] = system: U251 CNS
[23] = system: HOP-92 NSCLC
[24] = system: UACC-257 melanoma
[25] = system: EKVX NSCLC
[26] = system: DMS 273 small cell lung
[27] = system: OVCAR-8 ovarian
[28] = system: SK-MEL-2 melanoma
[29] = system: HOP-62 NSCLC
[30] = system: HCT-15 colon
[31] = system: NCI-H460 lung
[32] = system: SF-539 CNS
[33] = system: DLD-1 colon
[34] = system: K-562 leukemia
[35] = system: CAKI-1 renal
[36] = system: HCC-2998 colon
[37] = system: ACHN renal
[38] = system: HL-60(TB) leukemia
[39] = system: SK-MEL-5 melanoma
[40] = system: SK-OV-3 ovarian
[41] = system: IGROV1 ovarian
[42] = system: MALME-3M melanoma
[43] = system: SNB-75 CNS
[44] = system: HOP-18 NSCLC
[45] = system: SK-MEL-28 melanoma
[46] = system: HCT-116 colon
[47] = system: OVCAR-5 ovarian
[48] = system: NCI-H23 lung
[49] = system: LOX IMVI melanoma
[50] = system: CCRF-CEM leukemia
[51] = system: MOLT-4 leukemia
[52] = system: DU-145 prostate
[53] = system: PC-3 prostate
[54] = system: HS 578T breast
[55] = system: KM12 colon
[56] = system: MDA-N
[57] = system: UACC-62 melanoma
[58] = system: T-47D breast
[59] = system: SF-295 CNS
[60] = system: XF 498 CNS
[61] = system: MCF7 breast
[62] = system: TK-10 renal
[63] = system: DMS 114 small cell lung
[64] = system: SF-268 CNS
[65] = system: BT-549 breast
[66] = system: MDA-MB-231 breast
[67] = system: RPMI-8226 leukemia

Compound `CN(C)C(=S)Nc1nnc(Nc2ccccc2)s1` has a TGI [1] greater than 100 µM, a TGI [2] greater than 100 µM and a TGI [3] greater than 100 µM. It also gave a TGI [4] greater than 100 µM, a TGI [5] greater than 100 µM and a TGI [6] greater than 100 µM. The TGI [7] was greater than 100 µM, the TGI [8] was greater than 100 µM and the TGI [9] was greater than 100 µM. For the same compound, the TGI [10] was greater than 100 µM, the TGI [11] was greater than 100 µM and the TGI [12] was greater than 100 µM. It also gave a TGI [13] greater than 100 µM, a TGI [14] greater than 100 µM and a TGI [15] greater than 100 µM. It also gave a TGI [16] greater than 100 µM, a TGI [17] greater than 100 µM and a TGI [18] greater than 100 µM. It also gave a TGI [19] greater than 100 µM, a TGI [20] greater than 100 µM and a TGI [21] greater than 100 µM. The TGI [22] was greater than 100 µM, the TGI [23] was greater than 100 µM and the TGI [24] was greater than 100 µM. The TGI [25] was greater than 100 µM, the TGI [26] was greater than 100 µM and the TGI [27] was greater than 100 µM. It also gave a TGI [28] greater than 100 µM, a TGI [29] greater than 100 µM and a TGI [30] greater than 100 µM. The TGI [31] was greater than 100 µM, the TGI [32] was greater than 100 µM and the TGI [33] was greater than 100 µM. The TGI [34] was greater than 100 µM, the TGI [35] was greater than 100 µM and the TGI [36] was greater than 100 µM. For the same compound, the TGI [37] was greater than 100 µM, the TGI [38] was greater than 100 µM and the TGI [39] was greater than 100 µM. For the same compound, the TGI [40] was greater than 100 µM, the TGI [41] was greater than 100 µM and the TGI [42] was greater than 100 µM. For the same compound, the TGI [43] was greater than 100 µM, the TGI [44] was greater than 100 µM and the TGI [45] was greater than 100 µM. The TGI [46] was greater than 100 µM, the TGI [47] was greater than 100 µM and the TGI [48] was greater than 100 µM. It also gave a TGI [49] greater than 100 µM, a TGI [50] greater than 100 µM and a TGI [51] greater than 100 µM.
`COc1ccc2[nH]c(-c3ccc(O)cc3)cc(=O)c2c1` was tested, and the TGI [1] was 54.2 µM, the TGI [2] was 1.35 µM and the TGI [3] was 5.16 µM. The TGI [52] was greater than 100 µM, the TGI [4] was greater than 100 µM and the TGI [5] was greater than 100 µM. For the same compound, the TGI [6] was 82.1 µM, the TGI [7] was greater than 100 µM and the TGI [8] was 6.25 µM. The TGI [9] was greater than 58.1 µM, the TGI [10] was greater than 59.4 µM and the TGI [11] was 8.69 µM. The TGI [12] was greater than 86 µM, the TGI [13] was greater than 100 µM and the TGI [53] was greater than 100 µM. The TGI [14] was greater than 100 µM, the TGI [15] was 4.81 µM and the TGI [16] was greater than 100 µM. It also gave a TGI [18] of 0.725 µM, a TGI [19] of 98.2 µM and a TGI [54] greater than 100 µM. For the same compound, the TGI [20] was greater than 18.6 µM, the TGI [55] was 7.09 µM and the TGI [56] was greater than 100 µM. For the same compound, the TGI [21] was 13.1 µM, the TGI [57] was 38.9 µM and the TGI [22] was 9.29 µM. The TGI [23] was 43.9 µM, the TGI [24] was greater than 81.2 µM and the TGI [25] was greater than 31.2 µM. For the same compound, the TGI [26] was 0.717 µM, the TGI [27] was 13.1 µM and the TGI [58] was 79.6 µM. The TGI [29] was greater than 58.8 µM, the TGI [30] was 7.03 µM and the TGI [31] was 9.35 µM. For the same compound, the TGI [32] was 4.32 µM, the TGI [33] was greater than 100 µM and the TGI [59] was 6.71 µM. The TGI [34] was greater than 48.3 µM, the TGI [36] was 3.4 µM and the TGI [37] was greater than 100 µM. The TGI [38] was 2.16 µM, the TGI [39] was 5.43 µM and the TGI [40] was 7.49 µM. It also gave a TGI [60] of 13.7 µM, a TGI [61] greater than 100 µM and a TGI [41] greater than 62.8 µM. The TGI [42] was greater than 29.1 µM, the TGI [43] was 1.7 µM and the TGI [62] was greater than 89.7 µM. The TGI [44] was greater than 29.9 µM, the TGI [45] was greater than 100 µM and the TGI [46] was 10.4 µM. For the same compound, the TGI [63] was 1.49 µM, the TGI [64] was 20.6 µM and the TGI [65] was greater than 100 µM. It also gave a TGI [47] greater than 82.8 µM, a TGI [48] of 6.38 µM and a TGI [66] greater than 100 µM. For the same compound, the TGI [49] was greater than 90 µM, the TGI [67] was 65.2 µM and the TGI [50] was 21.9 µM. It also gave a TGI [51] of 79.4 µM.
